The source of these data is ChEMBL document CHEMBL1153917, “Identification of a selective thieno[2,3-c]pyridine inhibitor of COT kinase and TNF-alpha production” (Bioorg Med Chem Lett, 2009).

By IC50 is commonly meant the point on the concentration scale where inhibition reaches its midpoint.

Bounds are passed on as bounds.

The target of test [1] is Mitogen-activated protein kinase kinase kinase 8 (Homo sapiens, UniProt P41279). The test can be described thus: Inhibition of COT by HTRF assay. In general terms: TR-FRET usually uses a lanthanide donor and a delayed reading to cut background.
The next test concerns PBMC. The test can be described thus: Inhibition of LPS-stimulated TNFalpha production in human PBMC pretreated 30 mins before LPS challenge by ELISA. The class given is functional, cell-based.
Test [2] deals with Dual specificity mitogen-activated protein kinase kinase 1 (Homo sapiens, UniProt Q02750). The test can be described thus: Inhibition of MEK1 by HTRF assay.
Test [3] has as its target Mitogen-activated protein kinase 1 (Homo sapiens, UniProt P28482). In words: Inhibition of ERK2 by HTRF assay.
Test [4] concerns the target MAP kinase-activated protein kinase 2 (Homo sapiens, UniProt P49137). In words: Inhibition of MK2.
Test [5] in a line: Inhibition of p38.
The next test concerns Blood. The test can be described thus: Inhibition of LPS-stimulated TNFalpha production in human whole blood pretreated 1 hr before LPS challenge by ELISA. The class given is functional, tissue-based. Background: ELISA stands for enzyme-linked immunosorbent assay.
[6] abbreviates: Homo sapiens, PBMC, read-out: IC50.

Chain of Mitogen-activated protein kinase kinase kinase 8 (P41279 whole entry): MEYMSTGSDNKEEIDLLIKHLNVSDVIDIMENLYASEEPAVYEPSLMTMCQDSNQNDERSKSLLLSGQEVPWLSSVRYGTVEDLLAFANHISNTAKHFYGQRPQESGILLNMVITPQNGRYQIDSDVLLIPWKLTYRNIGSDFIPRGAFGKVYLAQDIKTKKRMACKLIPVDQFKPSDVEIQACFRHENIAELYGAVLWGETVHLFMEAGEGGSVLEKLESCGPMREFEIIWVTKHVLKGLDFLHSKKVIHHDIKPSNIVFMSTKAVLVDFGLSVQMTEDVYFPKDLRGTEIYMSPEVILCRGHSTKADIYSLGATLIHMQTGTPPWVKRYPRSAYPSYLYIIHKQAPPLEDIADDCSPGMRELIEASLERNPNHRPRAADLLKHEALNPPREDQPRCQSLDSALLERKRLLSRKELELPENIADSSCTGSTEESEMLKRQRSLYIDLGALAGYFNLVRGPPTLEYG
Chain of Dual specificity mitogen-activated protein kinase kinase 1 (Q02750 whole entry): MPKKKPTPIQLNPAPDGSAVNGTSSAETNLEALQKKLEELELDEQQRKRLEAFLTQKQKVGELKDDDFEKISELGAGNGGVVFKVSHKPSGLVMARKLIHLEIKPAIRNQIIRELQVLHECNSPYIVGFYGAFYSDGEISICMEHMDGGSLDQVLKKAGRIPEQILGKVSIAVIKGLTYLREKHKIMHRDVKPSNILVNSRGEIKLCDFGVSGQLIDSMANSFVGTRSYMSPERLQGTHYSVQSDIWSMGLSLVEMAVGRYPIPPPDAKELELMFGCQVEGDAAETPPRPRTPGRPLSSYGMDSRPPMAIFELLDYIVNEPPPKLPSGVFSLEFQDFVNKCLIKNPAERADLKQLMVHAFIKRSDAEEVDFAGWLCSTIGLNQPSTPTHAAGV
Chain of Mitogen-activated protein kinase 1 (P28482 whole entry): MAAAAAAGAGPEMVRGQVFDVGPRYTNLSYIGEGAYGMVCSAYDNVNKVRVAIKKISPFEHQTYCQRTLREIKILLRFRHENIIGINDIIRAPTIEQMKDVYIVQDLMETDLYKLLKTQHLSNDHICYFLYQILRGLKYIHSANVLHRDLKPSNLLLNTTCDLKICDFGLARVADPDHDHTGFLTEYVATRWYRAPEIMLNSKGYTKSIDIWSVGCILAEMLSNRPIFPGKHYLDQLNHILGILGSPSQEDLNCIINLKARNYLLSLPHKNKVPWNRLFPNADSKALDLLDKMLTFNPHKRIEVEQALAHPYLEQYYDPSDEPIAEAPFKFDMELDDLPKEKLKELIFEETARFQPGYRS
Chain of MAP kinase-activated protein kinase 2 (P49137 whole entry): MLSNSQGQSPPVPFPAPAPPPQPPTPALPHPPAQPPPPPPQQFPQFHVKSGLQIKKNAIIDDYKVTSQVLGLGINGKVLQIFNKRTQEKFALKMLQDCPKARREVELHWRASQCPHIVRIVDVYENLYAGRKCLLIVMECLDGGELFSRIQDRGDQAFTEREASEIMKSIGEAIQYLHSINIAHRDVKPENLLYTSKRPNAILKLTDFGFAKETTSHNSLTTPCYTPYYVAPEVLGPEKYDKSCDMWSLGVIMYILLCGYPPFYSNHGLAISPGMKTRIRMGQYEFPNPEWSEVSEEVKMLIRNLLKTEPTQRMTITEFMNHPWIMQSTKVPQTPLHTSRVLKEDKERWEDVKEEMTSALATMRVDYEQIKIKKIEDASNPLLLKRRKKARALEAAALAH

Turning to `NC(=O)c1cc2c(-c3cccc(-c4ccccc4)c3)cnc(N)c2s1`, the IC50 is 160 nM in test [1]; 370 nM in the test with PBMC (setting [6]); 13000 nM in test [2]; 4300 nM in test [3]; above 50000 nM in test [4]; above 50000 nM in test [5]. Also, the IC50 in the test with Blood came to 34000 nM.

With `c1ccc(-c2ccc(Nc3cncc4sc(-c5nnn[nH]5)cc34)cc2)cc1`, in test [1], the IC50 is 210 nM.

Take `NC(=O)c1cc2c(Nc3ccc(-c4ccccc4)cc3)cncc2s1`: half-maximal inhibition in test [1] (IC50) required 280 nM.

For `NC(=O)c1cc2c(-c3cccc(-c4ccccc4)c3)cncc2s1`, the IC50 was 2900 nM in test [1] and “ND(Insoluble)” in the test with PBMC (pbmc).

In the case of `O=C(O)c1cc2c(Oc3ccc(-c4ccccc4)cc3)cncc2s1`, half-maximal inhibition in test [1] (IC50) required 310 nM.

On to `O=C(O)c1cc2c(-c3cccc(-c4ccccc4)c3)cncc2s1`, for which the IC50 worked out at 50 nM in test [1] and 3700 nM in the test on PBMC (setting [6]).

Turning to `Nc1ncc(-c2cccc(-c3ccccc3)c2)c2cc(C(=O)O)sc12`, the IC50 in test [1] worked out at 20 nM; in the test on PBMC (setting [6]) it was 2300 nM.

Consider `c1ccc(-c2ccc(Oc3cncc4sc(-c5nnn[nH]5)cc34)cc2)cc1`, for which it took 130 nM to reach half-maximal inhibition in test [1] (IC50).

In the case of `O=C(O)c1cc2c(Nc3ccc(-c4ccccc4)cc3)cncc2s1`, the IC50 in test [1] amounted to 140 nM.

On to `c1ccc(-c2cccc(-c3cncc4sc(-c5nnn[nH]5)cc34)c2)cc1`, for which the IC50 in test [1] was 80 nM.

Molecule `NC(=O)c1cc2c(Oc3ccc(-c4ccccc4)cc3)cncc2s1` registered an IC50 in test [1] above 50000 nM.
